Values joined by “and” are separate entries in the source; they are usually repeats but may differ in a detail not shown here. Equal entries are not always repeated. “Also recorded” adds a separate entry of the source.
Assay: Phase 1b MAD plasma pharmacokinetics, non-compartmental analysis
Format: in vivo, human
Description: Methods: All study procedures were approved by the IRB, and informed consent was obtained. Three cohorts of volunteers 45-80 years of age with well-controlled comorbidities (NOAD) and one cohort of AD patients diagnosed with cognitive impairment consistent with prodromal AD per International Working Group criteria or mild AD per National Institute on Aging—Alzheimer's Association criteria (n=6 active, 2 placebo per cohort) were enrolled. Participants were admitted to the study site for the duration of the dosing and returned 7-12 days after the last dose for a safety visit. Participants received NTRX-07 (10, 30, or 90 mg) or a placebo in a double-blinded randomization orally once daily for seven days. Subjects were assessed for changes in vital signs, including maneuvers to induce lightheadedness, electrocardiograms, 24-hour electroencephalograms (EEG), and safety laboratory studies. The second cohort returned and received a single repeat dose after a standard high-fat meal. The AD cohort also underwent cognitive testing and had blood samples for biomarkers drawn. Subjects had PK sampling done after the first and final dose of the study drug. An independent safety review committee conducted a blinded safety review of adverse events and plasma levels between each cohort.
All subjects had PK sampling done after the first and final dose of the study drug.
(§1) Raw bioanalytical data were received from Nuvisan following analysis of plasma samples from each of four cohorts. PK parameters were calculated by noncompartmental analysis using standard equations. Specifically, area under the plasma concentration versus time curve (AUC) was calculated using the trapezoid rule. Maximal plasma concentration (Cmax) and time of maximal plasma concentration (Tmax) were taken directly from the data. Clearance divided by bioavailability (Cl/F) was calculated as the dose divided by the AUC. Apparent volume of distribution over bioavailability (Vd/F) was calculated as dose divided by Cmax.
With oral administration of the dose every 24 hours for 7 days, blood samples were taken over a 24-hour interval on Days 1 and 7 and before and after dosing on Day 3.
as §1, with “on Oct. 27, 2022. […]” for “following analysis of plasma samples from each of four cohorts. PK parameters were calculated by noncompartmental analysis using standard equations.”
as §1, with “on Nov. 24, 2022. […]” for “following analysis of plasma samples from each of four cohorts. PK parameters were calculated by noncompartmental analysis using standard equations.”
as §1, with “on Dec. 19, 2022. […]” for “following analysis of plasma samples from each of four cohorts. PK parameters were calculated by noncompartmental analysis using standard equations.”
Raw bioanalytical data were received from Nuvisan on Jun. 30, 2023. […] Specifically, area under the plasma concentration versus time curve (AUC) was calculated using the trapezoid rule. Maximal plasma concentration (Cmax) and time of maximal plasma concentration (Tmax) were taken directly from the data. […]

[1] = Table 9: Cohort A, 10 mg QD oral, Day 1, individual subjects
[2] = Table 10: Cohort A, 10 mg QD oral, Day 7, individual subjects
[3] = Table 11: Cohort B, 30 mg QD oral, Day 1, individual subjects
[4] = Table 12: Cohort B, 30 mg QD oral, Day 7, individual subjects
[5] = Table 13: Cohort B Fed, 30 mg oral, fed state, individual subjects
[6] = Table 14: Cohort C, 90 mg QD oral, Day 1, individual subjects
[7] = Table 15: Cohort C, 90 mg QD oral, Day 7, individual subjects
[8] = Table 16: Cohort D (AD), 90 mg QD oral, Day 1, individual subjects
[9] = Table 17: Cohort D (AD), 90 mg QD oral, Day 7, individual subjects

CC1(Cc2ccccc2)COc2cc(C(=O)N3CCCCC3)ccc21 (centres unmarked) [NTRX-07, 3-benzyl-3-methyl-2,3-dihydrobenzofuran-6-carboxylic acid-piperidine amide]
Food effect on Cmax (30 mg after standard high-fat meal vs fasted): decreased Cmax; also recorded: muting of Cmax
Plasma levels vs target / predicted efficacious levels (90 mg dose, allometric scaling of preclinical data): within the target ranges; also recorded: Blood levels equivalent to those that were efficacious in animal models of AD; also recorded: consistent with levels predicted to be efficacious
Dose linearity of PK (10-90 mg QD): PK is linear across this dose range
Dose linearity of PK (interim analyses) (40, 120 and 360 mg SDD QD doses): Good dose linearity; also recorded: linear; also recorded: Dose linearity was observed
Accumulation over seven days of dosing (Cohort A, 40 mg SDD QD): little or no accumulation
Accumulation over seven days of dosing (Cohort B, 120 mg SDD QD): little or no accumulation
Accumulation over seven days of dosing (Cohort C, 360 mg SDD QD): little or no accumulation
Average of Cl/F (Cohort D AD patients, 90 mg QD oral, Day 1, mean ± SD): 62 ± 19 L/h
AUClast [1]: 31.6 ng·h/mL and 66.2 ng·h/mL and 131.4 ng·h/mL and 33.4 ng·h/mL and 126.9 ng·h/mL and 83.1 ng·h/mL
Cl/F [1]: 316.3 L/h and 151.1 L/h and 76.1 L/h and 299.0 L/h and 78.8 L/h and 120.4 L/h
Cmax [1]: 24.2 ng/mL and 45.0 ng/mL and 36.7 ng/mL and 18.2 ng/mL and 52.6 ng/mL and 37.0 ng/mL
Tmax [1]: 1.0 h
Cl/F (Table 9: Cohort A, 10 mg QD oral, Day 1, mean ± S.D.): 174 ± 108 L/h
AUC24 h [2]: 47.8 ng·h/mL and 88.4 ng·h/mL and 223.8 ng·h/mL and 39.5 ng·h/mL and 80.4 ng·h/mL and 62.9 ng·h/mL
Cl/F [2]: 209.3 L/h and 113.2 L/h and 44.7 L/h and 253.4 L/h and 124.4 L/h and 158.9 L/h
Cmax [2]: 29.6 ng/mL and 39.4 ng/mL and 63.6 ng/mL and 19.6 ng/mL and 46.7 ng/mL and 27.1 ng/mL
Tmax [2]: 1.0 h
Cl/F (Table 10: Cohort A, 10 mg QD oral, Day 7, mean ± S.D.): 151 ± 74 L/h
AUClast [3]: 141.9 ng·h/mL and 462.4 ng·h/mL and 716.1 ng·h/mL and 369.3 ng·h/mL and 222.6 ng·h/mL and 92.5 ng·h/mL and 293.8 ng·h/mL
Cl/F [3]: 211.4 L/h and 64.9 L/h and 41.9 L/h and 81.2 L/h and 134.7 L/h and 324.4 L/h and 102.1 L/h
Cmax [3]: 60.8 ng/mL and 93.9 ng/mL and 209 ng/mL and 127 ng/mL and 153 ng/mL and 47.9 ng/mL and 70.6 ng/mL
Tmax [3]: 1.0 h (3×) and 2.0 h
Cl/F (Table 11: Cohort B, 30 mg QD oral, Day 1, mean ± S.D.): 137 ± 99 L/h
AUClast [4]: 113 ng·h/mL and 581 ng·h/mL and 286 ng·h/mL and 212 ng·h/mL and 61 ng·h/mL and 166 ng·h/mL
Cl/F [4]: 265.0 L/h and 51.7 L/h and 105.0 L/h and 141.2 L/h and 492.7 L/h and 181.3 L/h
Cmax [4]: 92.9 ng/mL and 236 ng/mL and 127 ng/mL and 186 ng/mL and 42.4 ng/mL and 37.9 ng/mL
Tmax [4]: 1 h
Cl/F (Table 12: Cohort B, 30 mg QD oral, Day 7, mean ± S.D.): 206 ± 176 L/h
AUClast [5]: 421 ng·h/mL and 944 ng·h/mL and 471 ng·h/mL and 347 ng·h/mL and 110 ng·h/mL and 312 ng·h/mL and 124 ng·h/mL and 364 ng·h/mL
Cl/F [5]: 71.2 L/h and 31.8 L/h and 63.7 L/h and 86.4 L/h and 272.1 L/h and 96.3 L/h and 242.3 L/h and 82.5 L/h
Cmax [5]: 42 ng/mL and 95.5 ng/mL and 39.6 ng/mL and 32.3 ng/mL and 66.8 ng/mL and 20.3 ng/mL and 58.4 ng/mL
Tmax [5]: 1 h (2×) and 3 h (2×) and 1.5 h (3×) and 6 h
Cl/F (Table 13: Cohort B Fed, 30 mg oral, fed state, mean ± S.D.): 123 ± 94 L/h
AUC24 h [6]: 1629 ng·h/mL and 857 ng·h/mL and 925 ng·h/mL and 657 ng·h/mL and 1730 ng·h/mL and 1807 ng·h/mL
Cl/F [6]: 55.2 L/h and 105.1 L/h and 97.3 L/h and 137.0 L/h and 52.0 L/h and 49.8 L/h
Cmax [6]: 449 ng/mL and 350 ng/mL and 337 ng/mL and 92.4 ng/mL and 713 ng/mL and 456 ng/mL
Tmax [6]: 1.5 h (3×) and 8 h and 1 h
Cl/F (Table 14: Cohort C, 90 mg QD oral, Day 1, mean ± S.D.): 83 ± 36 L/h
AUC24 h [7]: 783 ng·h/mL and 604 ng·h/mL and 318 ng·h/mL and 516 ng·h/mL and 876 ng·h/mL and 1349 ng·h/mL
Cl/F [7]: 115.0 L/h and 149.1 L/h and 283.5 L/h and 174.4 L/h and 102.7 L/h and 66.7 L/h
Cmax [7]: 167 ng/mL and 230 ng/mL and 155 ng/mL and 114 ng/mL and 105 ng/mL and 361 ng/mL
Tmax [7]: 2 h and 1.5 h and 3 h
Cl/F (Table 15: Cohort C, 90 mg QD oral, Day 7, mean ± S.D.): 149 ± 76 L/h
AUClast [8]: 1004 ng·h/mL and 1255 ng·h/mL and 2727 ng·h/mL and 1349 ng·h/mL and 1580 ng·h/mL and 1422 ng·h/mL
Cl/F [8]: 89.6 L/h and 71.7 L/h and 33.0 L/h and 66.7 L/h and 57.0 L/h and 63.3 L/h
Cmax [8]: 234 ng/mL and 491 ng/mL and 685 ng/mL and 435 ng/mL and 434 ng/mL and 587 ng/mL
Tmax [8]: 2 h and 1 h (2×) and 1.5 h
Cl/F (Table 16: Cohort D (AD), 90 mg QD oral, Day 1, mean ± S.D.): 64 ± 19 L/h
AUC24 h [9]: 1067 ng·h/mL and 994 ng·h/mL and 856 ng·h/mL and 608 ng·h/mL and 689 ng·h/mL
Cl/F [9]: 144.6 L/h and 84.4 L/h and 90.5 L/h and 105.2 L/h and 148.0 L/h and 130.6 L/h

— US20250082624A1, “METHODS OF TREATING COGNITIVE IMPAIRMENT” (NeuroTherapia, Inc., priority 2023, published 2025)
